The target in the experiment is T1, human PD-1 (Jurkat-PD-1 cells) / PE-labeled human PD-L1-Ig (Homo sapiens, UniProt Q15116).
T1 construct: expressed in transfected cells; host or cells: Jurkat cell line over-expressing human PD-1
Nature of the experiment: Jurkat-PD-1 Cell Binding High-Content Screening Assay (CBA); Jurkat hPD1-PDL1 assay. As to conditions: Jurkat cell line over-expressing human PD-1; PE-labeled PD-L1-Ig 20 nM final; compound incubated 2 hours at 37° C.; read-out: Jurkat HPD1-PDL1 IC50. A digest of the protocol: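 Cell binding by imaging: Jurkat line stably over-expressing human PD-1, compound pre-exposure 2 h at 37° C, PE-conjugated PD-L1-Ig 20 nM final, medium DMEM containing 10% FCS.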

pIC50: −log10 of the molar value. Positions of bridges follow the written chain, without caps; N, C: chain ends. Non-standard residues stand in square brackets, D forms with d. Residues, ends and D or L forms follow the SMILES beside them. Bip = N[C@@H](Cc1ccc(-c2ccccc2)cc1)C(=O)O; Phe(3-Br) = N[C@@H](Cc1cccc(Br)c1)C(=O)O; Phe(3-Cl) = N[C@@H](Cc1cccc(Cl)c1)C(=O)O; NMeF = CN[C@@H](Cc1ccccc1)C(=O)O; NMeA = CN[C@@H](C)C(=O)O; Orn = NCCC[C@H](N)C(=O)O; Dab = NCC[C@H](N)C(=O)O; Sar = CNCC(=O)O

T1 sequence (Q15116 25-288): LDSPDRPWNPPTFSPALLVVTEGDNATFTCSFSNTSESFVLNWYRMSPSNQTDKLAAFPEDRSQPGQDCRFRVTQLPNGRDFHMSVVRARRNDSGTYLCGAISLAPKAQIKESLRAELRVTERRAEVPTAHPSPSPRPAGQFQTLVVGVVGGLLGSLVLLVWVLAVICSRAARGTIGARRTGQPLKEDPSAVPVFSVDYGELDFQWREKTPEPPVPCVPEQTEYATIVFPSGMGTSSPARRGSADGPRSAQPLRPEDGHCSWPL

For the molecule `CC(C)C[C@@H]1NC(=O)[C@H](CCN)NC(=O)[C@H](Cc2ccccc2)N(C)C(=O)[C@H](C)N(C)C(=O)[C@H](CCCNC(=N)N)NC(=O)[C@H](Cc2ccc(-c3ccccc3)cc2)NC(=O)[C@H](C(C)C)NC(=O)[C@H](Cc2c[nH]c3ccccc23)NC(=O)[C@H](CC(=O)O)NC(=O)[C@H](Cc2ccc(O)cc2)NC(=O)[C@H](Cc2cnc[nH]2)NC(=O)CSC[C@@H](C(=O)N[C@@H](C)C(N)=O)NC(=O)[C@H](CO)NC(=O)[C@H](C(C)C)NC1=O` [Example 1316] ({CH2CO}-HYDWV[Bip]R[NMeA][NMeF][Dab]LVSCA-NH2; thioether N-14), the pIC50 was 7.10.

For `CC(C)C[C@@H]1NC(=O)[C@H](Cc2c[nH]c3ccccc23)NC(=O)[C@H](CC(=O)O)NC(=O)[C@H](Cc2cccc(Br)c2)NC(=O)[C@H](Cc2ccccc2)NC(=O)CSC[C@@H](C(=O)N[C@@H](C)C(N)=O)NC(=O)[C@H](CO)NC(=O)[C@H](C(C)C)NC(=O)[C@H](CC(C)C)NC(=O)[C@H](CC(N)=O)NC(=O)[C@H]2CCCN2C(=O)[C@H](C)N(C)C(=O)[C@H](C(C)C)NC(=O)[C@H](Cc2ccc(-c3ccccc3)cc2)NC1=O` [Example 1065] ({CH2CO}-F[Phe(3-Br)]DWL[Bip]V[NMeA][dP]NLVSCA-NH2; thioether N-14), the pIC50 is 6.92.

Turning to `CC(C)C[C@@H]1NC(=O)[C@H](Cc2c[nH]c3ccccc23)NC(=O)[C@H](CC(=O)O)NC(=O)[C@H](Cc2cnc[nH]2)NC(=O)[C@H](Cc2ccccc2)NC(=O)CSC[C@@H](C(=O)NCC(N)=O)NC(=O)[C@H](CO)NC(=O)[C@H](C(C)C)NC(=O)[C@H](CC(C)C)NC(=O)[C@H](CC(N)=O)NC(=O)CN(C)C(=O)[C@H](C)N(C)C(=O)[C@H](C(C)C)NC(=O)[C@H](Cc2ccc(-c3ccccc3)cc2)NC1=O` [Example 1153] ({CH2CO}-FHDWL[Bip]V[NMeA][Sar]NLVSCG-NH2; thioether N-14), the pIC50 was 6.12.

`CC(C)C[C@@H]1NC(=O)[C@H](CCCNC(=N)N)NC(=O)[C@H](Cc2ccccc2)N(C)C(=O)[C@H](CCCNC(=N)N)NC(=O)[C@H](CCCNC(=N)N)NC(=O)[C@H](Cc2ccc(-c3ccccc3)cc2)NC(=O)[C@H](C(C)C)NC(=O)[C@H](Cc2c[nH]c3ccccc23)NC(=O)[C@H](CC(=O)O)NC(=O)[C@H](Cc2ccc(O)cc2)NC(=O)[C@H](Cc2cnc[nH]2)NC(=O)CSC[C@@H](C(=O)NCC(N)=O)NC(=O)[C@H](CO)NC(=O)[C@H](C(C)C)NC1=O` [Example 1315] ({CH2CO}-HYDWV[Bip]RR[NMeF]RLVSCG-NH2; thioether N-14): the pIC50 was 6.28.

As for `CC(C)C[C@@H]1NC(=O)[C@H](Cc2c[nH]c3ccccc23)NC(=O)[C@H](CC(=O)O)NC(=O)[C@H](Cc2ccc(O)cc2)NC(=O)[C@H](Cc2ccccc2)NC(=O)CSC[C@@H](C(=O)NCC(N)=O)NC(=O)[C@H](CO)NC(=O)[C@H](C(C)C)NC(=O)[C@H](CC(C)C)NC(=O)[C@H](CC(N)=O)NC(=O)[C@H]2CCCN2C(=O)[C@H](CCN)NC(=O)[C@H](C(C)C)NC(=O)[C@H](Cc2ccc(-c3ccccc3)cc2)NC1=O` [Example 1413] ({CH2CO}-FYDWL[Bip]V[Dab][dP]NLVSCG-NH2; thioether N-14), the pIC50 was 7.05.

On to `CC(C)C[C@@H]1NC(=O)[C@H](CCCNC(=N)N)NC(=O)[C@H](Cc2ccccc2)N(C)C(=O)[C@H](C)N(C)C(=O)[C@H](C(C)C)NC(=O)[C@H](Cc2ccc(-c3ccccc3)cc2)NC(=O)[C@H](C(C)C)NC(=O)[C@H](Cc2c[nH]c3ccccc23)NC(=O)[C@H](CC(=O)O)NC(=O)[C@H](Cc2ccc(O)cc2)NC(=O)[C@H](Cc2ccccc2)NC(=O)CSC[C@@H](C(=O)N[C@@H](C)C(N)=O)NC(=O)[C@H](CO)NC(=O)[C@H](C(C)C)NC1=O` [Example 1115] ({CH2CO}-FYDWV[Bip]V[NMeA][NMeF]RLVSCA-NH2; thioether N-14), for which the pIC50 is 6.40.

For the molecule `CC[C@H](C)[C@@H]1NC(=O)[C@H](Cc2c[nH]c3ccccc23)NC(=O)[C@H](CC(=O)O)NC(=O)[C@H](Cc2ccc(O)cc2)NC(=O)[C@H](Cc2ccccc2)NC(=O)CSC[C@@H](C(=O)NCC(N)=O)NC(=O)[C@H](CO)NC(=O)[C@H](C(C)C)NC(=O)[C@H](CC(C)C)NC(=O)[C@H](CCCNC(=N)N)NC(=O)[C@H](Cc2ccccc2)N(C)C(=O)[C@H](C)N(C)C(=O)[C@H](CCCNC(=N)N)NC(=O)[C@H](Cc2ccc(-c3ccccc3)cc2)NC1=O` [Example 1284] ({CH2CO}-FYDWI[Bip]R[NMeA][NMeF]RLVSCG-NH2; thioether N-14), the pIC50 is 6.09.

Consider `CC(C)C[C@@H]1NC(=O)[C@H](CCN)NC(=O)[C@H](Cc2ccccc2)N(C)C(=O)[C@H](C)N(C)C(=O)[C@H](CCCNC(=N)N)NC(=O)[C@H](Cc2ccc(-c3ccccc3)cc2)NC(=O)[C@H](C(C)C)NC(=O)[C@H](Cc2c[nH]c3ccccc23)NC(=O)[C@H](CC(=O)O)NC(=O)[C@H](Cc2ccc(O)cc2)NC(=O)[C@H](Cc2cnc[nH]2)NC(=O)CSC[C@@H](C(=O)NCC(N)=O)NC(=O)[C@H](CO)NC(=O)[C@H](C(C)C)NC1=O` [Example 1314] ({CH2CO}-HYDWV[Bip]R[NMeA][NMeF][Dab]LVSCG-NH2; thioether N-14), for which the pIC50 is 7.05.

In the case of `CC(C)C[C@@H]1NC(=O)[C@H](Cc2c[nH]c3ccccc23)NC(=O)[C@H](CC(=O)O)NC(=O)[C@H](Cc2ccc(O)cc2)NC(=O)[C@H](Cc2ccccc2)NC(=O)CSC[C@@H](C(=O)NCC(N)=O)NC(=O)[C@H](CO)NC(=O)[C@H](C(C)C)NC(=O)[C@H](CC(C)C)NC(=O)[C@H](CCN)NC(=O)[C@H]2CCCN2C(=O)[C@H](CCCN)NC(=O)[C@H](C(C)C)NC(=O)[C@H](Cc2ccc(-c3ccccc3)cc2)NC1=O` [Example 1423] ({CH2CO}-FYDWL[Bip]V[Orn][dP][Dab]LVSCG-NH2; thioether N-14), the pIC50 was 7.00.

For `CC(C)C[C@@H]1NC(=O)[C@H](Cc2cccc(Cl)c2)NC(=O)[C@H](CC(=O)O)NC(=O)[C@H](Cc2ccc(O)cc2)NC(=O)[C@H](Cc2ccccc2)NC(=O)CSC[C@@H](C(=O)N[C@@H](C)C(N)=O)NC(=O)[C@H](CO)NC(=O)[C@H](C(C)C)NC(=O)[C@H](CC(C)C)NC(=O)[C@H](CC(N)=O)NC(=O)CN(C)C(=O)[C@H](C)N(C)C(=O)[C@H](C(C)C)NC(=O)[C@H](Cc2ccc(-c3ccccc3)cc2)NC1=O` [Example 1061] ({CH2CO}-FYD[Phe(3-Cl)]L[Bip]V[NMeA][Sar]NLVSCA-NH2; thioether N-14), the pIC50 is 6.85.

Take `CC(C)C[C@@H]1NC(=O)[C@H](Cc2c[nH]c3ccccc23)NC(=O)[C@H](CC(=O)O)NC(=O)[C@H](Cc2ccc(O)cc2)NC(=O)[C@H](Cc2ccccc2)NC(=O)CSC[C@@H](C(=O)NCC(N)=O)NC(=O)[C@H](C)NC(=O)[C@H](C(C)C)NC(=O)[C@H](CC(C)C)NC(=O)[C@H](CC(N)=O)NC(=O)CN(C)C(=O)[C@H](C)N(C)C(=O)[C@H](C(C)C)NC(=O)[C@H](Cc2ccc(-c3ccccc3)cc2)NC1=O` [Example 1110] ({CH2CO}-FYDWL[Bip]V[NMeA][Sar]NLVACG-NH2; thioether N-14): the pIC50 was 6.46.

As a reminder, the pIC50 is the IC50 on a negative log10 scale, so that one unit is a factor of ten.
